Data from patent publication US9738653B2, “Fused furans for the treatment of hepatitis C” (BRISTOL-MYERS SQUIBB COMPANY, priority 2013, dated 2017).

Key:
[1] = target: T1, HCV NS5B genotype 1b (Con1) (Hepatitis C virus genotype 1b, UniProt Q9WMX2); assay: HCV NS5B RdRp enzyme assay; type: biochemical; conditions: 1b enzyme, 24 hours at 30° C.
T1 construct: Each untagged protein was expressed with an 18 amino acid C-terminal truncation to enhance the solubility; made in house; host or cells: E. coli BL21(DE3), pET21a
T1 sequence (Q9WMX2 2420-2992): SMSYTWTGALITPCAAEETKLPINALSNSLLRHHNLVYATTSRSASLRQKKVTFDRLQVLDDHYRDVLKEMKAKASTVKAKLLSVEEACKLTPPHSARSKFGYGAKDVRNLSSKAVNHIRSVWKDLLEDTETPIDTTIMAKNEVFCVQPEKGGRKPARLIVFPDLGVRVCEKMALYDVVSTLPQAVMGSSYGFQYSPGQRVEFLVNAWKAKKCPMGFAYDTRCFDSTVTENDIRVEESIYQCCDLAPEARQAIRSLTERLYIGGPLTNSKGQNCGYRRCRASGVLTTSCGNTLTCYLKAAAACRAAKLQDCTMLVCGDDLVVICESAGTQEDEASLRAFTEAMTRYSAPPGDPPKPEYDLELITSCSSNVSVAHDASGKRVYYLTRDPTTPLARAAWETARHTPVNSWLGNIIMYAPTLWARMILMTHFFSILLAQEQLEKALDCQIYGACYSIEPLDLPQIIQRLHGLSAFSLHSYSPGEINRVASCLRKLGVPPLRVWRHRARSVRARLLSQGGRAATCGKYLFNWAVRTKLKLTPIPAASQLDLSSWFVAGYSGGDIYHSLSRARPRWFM
Method: The cDNA encoding NS5B proteins of HCV genotype 1b (Con1), a genotype 1b variant with amino acid 316 mutated from cysteine to asparagine, and genotype 2a (JFH-1), were cloned into the pET21a expression vector. Each untagged protein was expressed with an 18 amino acid C-terminal truncation to enhance the solubility. The E. coli competent cell line BL21(DE3) was used for expression of the protein. Cultures were grown at 37° C. for ˜4 hours until the cultures reached an optical density of 2.0 at 600 nm. The cultures were cooled to 20° C. and induced with 1 mM IPTG. Fresh ampicillin was added to a final concentration of 50 μg/mL and the cells were grown overnight at 20° C.
The lysis buffer consisted of 20 mM Tris-HCl, pH 7.4, 500 mM NaCl, 0.5% triton X-100, 1 mM DTT, 1 mM EDTA, 20% glycerol, 0.5 mg/mL lysozyme, 10 mM MgCl2, 15 ug/mL deoxyribonuclease I, and Complete™ protease inhibitor tablets (Roche). After addition of the lysis buffer, frozen cell pellets were resuspended using a tissue homogenizer. To reduce the viscosity of the sample, aliquots of the lysate were sonicated on ice using a microtip attached to a Branson sonicator. The sonicated lysate was centrifuged at 100,000×g for 30 minutes at 4° C. and filtered through a 0.2 μm filter unit (Corning).
The protein was purified using two sequential chromatography steps: Heparin sepharose CL-6B and polyU sepharose 4B. The chromatography buffers were identical to the lysis buffer but contained no lysozyme, deoxyribonuclease I, MgCl2 or protease inhibitor and the NaCl concentration of the buffer was adjusted according to the requirements for charging the protein onto the column. Each column was eluted with a NaCl gradient which varied in length from 5-50 column volumes depending on the column type. […] The enzyme was aliquoted and stored at −80° C.
An on-bead solid phase homogeneous assay was used in a 384-well format to assess NS5B inhibitors (WangY-K, Rigat K, Roberts S, and Gao M (2006) Anal Biochem, 359: 106-111). The biotinylated oligo dT12 primer was captured on streptavidin-coupled imaging beads (GE, RPNQ0261) by mixing primer and beads in 1× buffer and incubating at room temperature for three hours. Unbound primer was removed after centrifugation. The primer-bound beads were resuspended in 3× reaction mix (20 mM Hepes buffer, pH 7.5, dT primer coupled beads, poly A template, ^3H-UTP, and RNAse inhibitor (Promega N2515)). Compounds were serially diluted 1:3 in DMSO and aliquoted into assay plates. Equal volumes (5 μL) of water, 3× reaction mix, and enzyme in 3× assay buffer (60 mM Hepes buffer, pH 7.5, 7.5 mM MgCl2, 7.5 mM KCl, 3 mM DTT, 0.03 mg/mL BSA, 6% glycerol) were added to the diluted compound on the assay plate. Final concentration of components in 384-well assay: 0.36 nM template, 15 nM primer, 0.29 μM ^3H-UTP (0.3 μCi, 1.6 U/μL RNAse inhibitor, 7 nM NS5B enzyme, 0.01 mg/mL BSA, 1 mM DTT, and 0.33 μg/μL beads, 20 mM Hepes buffer, pH 7.5, 2.5 mM MgCl2, 2.5 mM KCl, and 0.1% DMSO.
Reactions were allowed to proceed for 24 hours at 30° C. and terminated by the addition of 50 mM EDTA (5 μL). After incubating for at least 15 minutes, plates were read on an Amersham LEADseeker multimodality imaging system.
IC50 values for compounds were determined using ten different [I]. IC50 values were calculated from the inhibition using the four-parameter logistic formula y=A+((B−A)/(1+((C/x)^D))), where A and B denote minimal and maximal % inhibition, respectively, C is the IC50, D is hill slope and x represents compound concentration.

[2] = test system: genotype 1b (Con-1) HCV replicon in Huh-7 cells; assay: HCV replicon luciferase assay; type: cell-based; conditions: 1b replicon, Renilla luciferase, 3 days incubation
Method: The cell lines used to evaluate compounds consist of a human hepatocyte derived cell line (Huh-7) that constitutively expresses a genotype 1b (Con-1) HCV replicon or a genotype 1b (Con-1) HCV replicon with an asparagine replacing the cysteine at amino acid 316, or a genotype 2a (JFH-1) replicon, containing a Renilla luciferase reporter gene. These cells were maintained in Dulbecco's modified Eagle medium (DMEM) containing 10% FBS, 100 U/mL penicillin/streptomycin and 1.0 mg/mL G418.
To evaluate compound efficacy, titrated compounds were transferred to sterile 384-well tissue culture treated plates, and the plates were seeded with HCV replicon cells ([…] at a density of 2.4×10^3 cells/well) in DMEM containing 4% FBS (final DMSO concentration at 0.5%). After 3 days incubation at 37° C., cells were analyzed for Renilla Luciferase activity using the EnduRen substrate (Promega cat #E6485) according to the manufacturer's directions. Briefly, the EnduRen substrate was diluted in DMEM and then added to the plates to a final concentration of 7.5 μM. The plates were incubated for at least 1 h at 37° C. then read on a Viewlux Imager (PerkinElmer) using a luminescence program. The 50% effective concentration (EC50) was calculated using the four-parameter logistic formula noted above.

Row | SMILES | IC50 [1] [nM] | EC50 ([2]; Hepatitis C virus, Huh-7, 72 h) [nM] | EC50 [2] [nM]
1 | CNC(=O)c1c(-c2ccc(F)cc2)oc2nc(CCC(F)(F)F)c(-c3cnc(OC)c(C(=O)NC45CC(C4)C5)c3)cc12 | 3.65 | 6.48 | 
2 | CCC(C)c1cc2oc(-c3ccc(F)cc3)c(C(=O)NC)c2cc1-c1cccc(C(=O)NC23CC(C2)C3)c1 (centres unmarked) [drawing 305] |  |  | 20
3 | CNC(=O)c1c(-c2ccc(F)cc2)oc2nc(CCC(F)(F)F)c(-c3cc(F)cc(C(=O)NC45CC(C4)C5)c3)cc12 | 30 | 10 | 
4 | CNC(=O)c1c(-c2ccc(F)cc2)oc2ncc(-c3ccc(F)c(C(=O)NC45CC(C4)C5)c3)cc12 | 220 | 50 | 
5 | CNC(=O)c1c(-c2ccc(F)cc2)oc2cc(CCNS(C)(=O)=O)c(-c3cccc(C(=O)NC45CC(C4)C5)c3)cc12 | 10 | 20 | 
6 | CNC(=O)Cc1cc2oc(-c3ccc(F)cc3)c(C(=O)NC)c2cc1-c1cccc(C(=O)NC23CC(C2)C3)c1 |  | 50 | 
7 | CNC(=O)c1c(-c2ccc(F)cc2)oc2nc(NCC(F)(F)F)c(-c3ccc(OC)c(C(=O)NC45CC(C4)C5)c3)cc12 | 20 | 3.72 | 
8 | CNC(=O)c1c(-c2ccc(F)cc2)oc2nc(NCC(F)(F)F)c(-c3cc(C(=O)NC45CC(C4)C5)ccc3OC)cc12 |  | 9.14 | 
9 | CNC(=O)c1c(-c2ccc(F)cc2)oc2cc(CCC(F)(F)F)c(-c3cccc(C(=O)NC45CC(C4)C5)c3)cc12 |  | 30 | 
10 | CNC(=O)c1c(-c2ccc(F)cc2)oc2cc(CS(C)(=O)=O)c(-c3cccc(C(=O)NC45CC(C4)C5)c3)cc12 |  | 70 | 
11 | CNC(=O)c1c(-c2ccc(F)cc2)oc2cc(CCC(F)(F)F)c(-c3cc(C(=O)NC45CC(C4)C5)c(F)cc3C)cc12 | 20 | 20 | 
12 | CNC(=O)c1c(-c2ccc(F)cc2)oc2cc(CCC(F)(F)F)c(-c3cccc(C(=O)NC45CC(C4)C5)c3)c(F)c12 |  | 10 | 
13 | CNC(=O)c1c(-c2ccc(F)cc2)oc2cc(N)c(-c3ccc(OC)c(C(=O)NC45CC(C4)C5)c3)cc12 |  | 10 | 
14 | CCC(C)c1cc2oc(-c3ccc(F)cc3)c(C(=O)NC)c2cc1-c1cccc(C(=O)NC23CC(C2)C3)c1 (centres unmarked) [drawing 294] | 10 |  | 10
15 | CNC(=O)c1c(-c2ccc(F)cc2)oc2cc(CC(=O)N(C)C)c(-c3ccc(F)c(C(=O)NC45CC(C4)C5)c3)cc12 |  | 520 | 
16 | CNC(=O)c1c(-c2ccc(F)cc2)oc2cc(CCC(F)F)c(-c3cccc(C(=O)NC45CC(C4)C5)c3)cc12 | 7.19 | 3.89 | 
17 | CNC(=O)c1c(-c2ccc(F)cc2)oc2nc(CCC(F)(F)F)c(-c3ccc(OC)c(C(=O)NC45CC(C4)C5)c3)cc12 | 10 | 9.23 | 
18 | CNC(=O)c1c(-c2ccc(F)cc2)oc2cc(NCC(F)(F)F)c(-c3ccc(OC)c(C(=O)NC45CC(C4)C5)c3)cc12 | 7.17 | 5.08 | 
19 | CNC(=O)c1c(-c2ccc(F)cc2)oc2nc(NCC(F)(F)F)c(-c3cnc(OC)c(C(=O)NC45CC(C4)C5)c3)cc12 | 6.54 | 5.79 | 
20 | CNC(=O)c1c(-c2ccc(F)cc2)oc2cc(OCC(F)(F)F)c(-c3cccc(C(=O)NC45CC(C4)C5)c3)cc12 |  | 10 | 
21 | CNC(=O)c1c(-c2ccc(F)cc2)oc2cc(CS(C)(=O)=O)c(-c3ccc(F)c(C(=O)NC45CC(C4)C5)c3)cc12 |  | 70 | 

Row | SMILES | IC50 [1] [nM] | EC50 ([2]; Hepatitis C virus, Huh-7, 72 h) [nM] | EC50 [2] [nM]
22 | CNC(=O)c1c(-c2ccc(F)cc2)oc2cc(CCCO)c(-c3cccc(C(=O)NC45CC(C4)C5)c3)cc12 | 9.56 | 3.86 | 
23 | CCCc1nc2oc(-c3ccc(F)cc3)c(C(=O)NC)c2cc1-c1cccc(C(=O)NC23CC(C2)C3)c1 | 7.73 | 5.26 | 
24 | CNC(=O)c1c(-c2ccc(F)cc2)oc2cc(CCC(F)(F)F)c(-c3ccc(F)c(C(=O)NC45CC(C4)C5)c3)cc12 | 30 | 10 | 
25 | CNC(=O)c1c(-c2ccc(F)cc2)oc2cc(CC(N)=O)c(-c3ccc(F)c(C(=O)NC45CC(C4)C5)c3)cc12 |  | 10 | 
26 | CNC(=O)c1c(-c2ccc(F)cc2)oc2cc(CC(=O)O)c(-c3ccc(F)c(C(=O)NC45CC(C4)C5)c3)cc12 |  | 8090 | 
27 | CNC(=O)c1c(-c2ccc(F)cc2)oc2cc(COC)c(-c3cc(C(=O)NC45CC(C4)C5)c(OC)cc3C)c(F)c12 | 30 | 30 | 
28 | CNC(=O)c1c(-c2ccc(F)cc2)oc2cc([N+](=O)[O-])c(-c3cccc(C(=O)NC45CC(C4)C5)c3)c(F)c12 | 680 | 170 | 
29 | CNC(=O)c1c(-c2ccc(F)cc2)oc2cc(CCNC(=O)OC)c(-c3cccc(C(=O)NC45CC(C4)C5)c3)cc12 | 20 | 20 | 
30 | CNC(=O)c1c(-c2ccc(F)cc2)oc2cc(CC(=O)OC)c(-c3ccc(F)c(C(=O)NC45CC(C4)C5)c3)cc12 |  | 20 | 
31 | CCN(c1nc2oc(-c3ccc(F)cc3)c(C(=O)NC)c2cc1-c1cccc(C(=O)NC23CC(C2)C3)c1)S(C)(=O)=O | 6.8 | 2.85 | 
32 | CCCc1cc2oc(-c3ccc(F)cc3)c(C(=O)NC)c2cc1-c1cc(C(=O)NC23CC(C2)C3)c(F)cc1C | 20 | 30 | 
33 | CNC(=O)c1c(-c2ccc(F)cc2)oc2cc(OCC(F)(F)F)c(-c3ccc(OC)c(C(=O)NC45CC(C4)C5)c3)cc12 | 4.55 | 10 | 
34 | CNC(=O)c1c(-c2ccc(F)cc2)oc2cc(CCC(F)(F)F)c(-c3ccc(F)c(C(=O)NC45CC(C4)C5)c3)c(F)c12 |  | 40 | 
35 | CNC(=O)c1c(-c2ccc(F)cc2)oc2cc(CC(=O)N(C)C)c(-c3cccc(C(=O)NC45CC(C4)C5)c3)cc12 |  | 310 | 
36 | CNC(=O)c1c(-c2ccc(F)cc2)oc2cc(CC(=O)O)c(-c3cccc(C(=O)NC45CC(C4)C5)c3)cc12 |  | > 10000 | 
37 | CNC(=O)Cc1cc2oc(-c3ccc(F)cc3)c(C(=O)NC)c2cc1-c1ccc(F)c(C(=O)NC23CC(C2)C3)c1 |  | 50 | 
38 | CNC(=O)c1c(-c2ccc(F)cc2)oc2nc(NCC(F)(F)F)c(-c3cccc(C(=O)NC45CC(C4)C5)c3)cc12 |  | 3.58 | 
39 | CNC(=O)c1c(-c2ccc(F)cc2)oc2nc(N(CC(F)(F)F)S(C)(=O)=O)c(-c3cccc(C(=O)NC45CC(C4)C5)c3)cc12 |  | 20 | 
40 | CNC(=O)c1c(-c2ccc(F)cc2)oc2nc(CCC(F)(F)F)c(-c3csc(C(=O)NC45CC(C4)C5)c3)cc12 |  | 20 | 
41 | CNC(=O)c1c(-c2ccc(F)cc2)oc2cc(CCCOC(=O)c3ccccc3)c(-c3cccc(C(=O)NC45CC(C4)C5)c3)cc12 |  | 140 | 
42 | CNC(=O)c1c(-c2ccc(F)cc2)oc2cc(COC)c(-c3cccc(C(=O)NC45CC(C4)C5)c3)cc12 |  | 6.21 | 
